We go through 16 compounds from US20230312587A1, “PTERIDINONE COMPOUNDS AND USES THEREOF” (Vertex Pharmaceutical Incorporated, priority 2018, published 2023).

Type in all cases: cell-based
Assay [1] concerns Hek293 WFS1 over-expressor. Kind of assay: In vitro cell viability (CellTiter-Glo), Hek293 WFS1 over-expressor. The following applies: Homo sapiens, HEK293, Hek293 WFS1 over-expressing cells; read-out: Hek293 WFS1 viability. On the procedure: WFS1 cDNA is amplified from clone RC202901 (Origene Technologies) with primers 5′-TCCGCGGCCCCAAGCTTATCGCCATGGACTCCAACACTGC-3′ (SEQ ID NO: 1), 5′-GATGGGCCCAGATCTCGAGTCAGGCCGCCGACAGGAATG-3′ (SEQ ID NO: 2) and cloned into a retroviral mammalian expression vector pCLPCX using HD Infusion (CLONTECH) at Hind3-Xhol sites using standard procedures. The resulting clone is identified as pCLPCX_WFS1.
HEK293 (ATCC, catalog #CRL-1573) cells are plated in 10 cm dishes (Corning, product #430167) into 10 mL of complete DMEM cell culture media [DMEM (Life Technologies, product #11960-051) media supplemented with 10% FBS (Hyclone, catalog #SH30071.03), antimycotic/antibiotic (Life Technologies, product #15240-062), and Glutamax (Life Technologies, product #35050-061)] at 3×10^6 cells per dish. Cells are allowed to attach and grow overnight at 37° C. in humidified 5% CO2. Cells are co-transfected with pVSV-G, pCMV-Gag/Pol and pCLPCX_WFS1 using Fugene 6 (Promega, catalog #E2691) according to manufacturer's protocol. Separately, cells are co-transfected with pVSV-G, pCMV-Gag/Pol and pCLPCX to produce control retrovirus. Cell culture media containing retrovirus (viral supernatant) is collected at 48 and 72 hours following transfection, filtered through a 0.4 uM filter, and stored at −80° C.
HEK293 cells are plated in 6 well plates (Corning, product #3516) in 2 mL of complete DMEM cell culture media at 1×10^5 cells well and allowed to attach and grow overnight at 37° C. in humidified 5% CO2. The following day, the media is replaced with viral supernatant to which 10 ug/ml of Polybrene® (Santa Cruz Biotech, catalog #sc-134220) is added. Viral supernatant is replaced 24 hours later with complete DMEM media. Transduced cells are selected in complete DMEM cell culture media containing 1 microgram/mL of puromycin (Life Technologies, catalog #A1113803).
HEK293 cells containing empty pCLPCx vector (HEK293 empty), HEK293 cells stably over-expression WFS1 (HEK293 WFS1), HepG2, and HepG2 cells where WFS1 was depleted via CRISPR/Cas9 (HepG2 WFS1 KO) cells were plated into 96-well black plates (Corning, product #3904) in 100 microliters of complete DMEM cell culture media [DMEM (Life Technologies, product #11960-051) media supplemented with 10% FBS (Hyclone, catalog #SH30071.03), antimycotic/antibiotic (Life Technologies, product #15240-062), and Glutamax (Life Technologies, product #35050-061)] at 1,000 (HEK293) or 5,000 (HepG2) cells per well. Cells were allowed to attach and grow overnight, after which compounds are added at various concentrations. Cell viability was assessed 96 hrs after compound addition with CellTiter-Glo reagent (Promega, catalog #G7570) according to manufacturer's protocol and measurement on a Pherastar luminescence plate reader (BMG Labtech).
The IC50s for the viability of both the Hek293 empty vector and WFS1 over-expressing cells are summarized in Table 47: A<0.06 μM; 0.06 μM≤B<0.6 μM; 0.6 μM≤C<3.0 μM; D≥3.0 μM.

The subject of a further assay is Colo-205 cells. The assay is described as follows: Calcium flux assay (FLIPR Calcium 5). The following applies: Homo sapiens, COLO 205, 0.6 h, FLIPR Calcium 5, measured over 36 minutes. The protocol: Compounds described herein induced ER stress by causing intracellular calcium flux. Calcium flux was measured in Colo-205 cells using the FLTPR® Calcium 5 Assay Kit according to manufacter's protocol (Molecular Devices, Cat. #R8186) on a FLIPR3 system (Molecular Devices). Calcium flux is measured over 36 minutes. The Colo-205 calcium flux assay data are summarized in Table 47: A<0.6 μM; 0.6 μM≤B<2.0 μM; 2.0 μM≤C<10.0 μM; D≥10.0 μM.
Background: Calcium flux is commonly read through the fluorescence of an indicator in the cells.

In another assay the test system is HepG2 XBP1(u)-Luc cells. Kind of assay: HepG2 XBP1 reporter assay. Conditions: Homo sapiens, 6 h. The protocol: HepG2 hepatoma cells were transduced with a retrovirus encoding the cDNA for unspliced (u) XBP1, which contains a non-processed intron, fused to the cDNA for firefly luciferase. Upon induction of ER stress, the non-processed intron of XBP1(u) is spliced out by active IRE1alpha endonuclease. The resulting spliced (s) XBP1 is now in frame with luciferase which causes the production of active luciferase protein, resulting in bioluminescence
HepG2 XBP1(u)-Luc cells were plated […] Cultured cells with a stably transfected reporter construct were plated at approximately 30,000 cells per well into 96 well multi-well plates for twenty four hours. The testing compounds were then added to the wells in 3-fold serial dilutions using a twenty seven micromolar top concentration. A series of control wells for each cell type received only compound solvent. Six hours after the addition of compound, reporter activity for luciferase was assayed, by addition of the SteadyGlo luminescence reagent (Promega). The reporter luminescence activity was measured using Pherastar plate reader (BMG Labtech). Readings was normalized to DMSO only treated cells, and normalized activities were then used in the IC50 calculations. The HepG2 XBP1 reporter assay data are summarized in Table 47: A<0.6 μM; 0.6 μM≤B<2.0 μM; 2.0 μM≤C<10.0 μM; D≥10.0 μM.

Molecules are shown by their SMILES.

Broadly, the EC50 is the concentration at which the effect is half-maximal. For the compound `Cc1nc(N[C@H]2C[C@H](Oc3ccc(F)cc3)C2)nc2c1N(C)C(=O)[C@H](C)N2C` [Compound 250, (7S)-2-((trans-3-(4-fluorophenoxy)cyclobutyl)amino)-4,5,7,8-tetramethyl-7,8-dihydropteridin-6(5H)-one], the IC50 in assay [1] was in the range of 60 to 600 nM. In addition, in the assay with Colo-205 cells, the EC50 lay within 600 to 2000 nM.

With `Cc1nc(NCc2cnn(Cc3cc(C(F)(F)F)nn3C)c2)nc2c1NC(=O)[C@H](C(C)C)N2C` [Compound 397, (7S)-7-Isopropyl-4,8-dimethyl-2-(((1-((1-methyl-3-(trifluoromethyl)-1H-pyrazol-5-yl)methyl)-1H-pyrazol-4-yl)methyl)amino)-7,8-dihydropteridin-6(5H)-one], the IC50 in assay [1] is less than 60 nM; in the assay on HepG2 XBP1(u)-Luc cells, less than 600 nM. Moreover, in the assay on Colo-205 cells, the EC50 fell in the range of 600 to 2000 nM.

Consider `Cc1nc(NCc2cnn(Cc3ccc(C(F)(F)F)nc3)c2)nc2c1NC(=O)[C@H](C1CC1)N2C` [Compound 386, (7S)-7-Cyclopropyl-4,8-dimethyl-2-(((1-((6-(trifluoromethyl)pyridin-3-yl)methyl)-1H-pyrazol-4-yl)methyl)amino)-7,8-dihydropteridin-6(5H)-one], for which the IC50 in assay [1] is less than 60 nM; in the assay with HepG2 XBP1(u)-Luc cells it was less than 600 nM. Also, the EC50 in the assay on Colo-205 cells lay within 600 to 2000 nM.

On to `Cc1nc(NCc2cnn([C@H]3CCN(C4CCC(F)(F)CC4)C3)c2)nc2c1NC(=O)[C@H](C)N2C` [Compound 142, (7S)-2-(((1-((S)-1-(4,4-difluorocyclohexyl)pyrrolidin-3-yl)-1H-pyrazol-4-yl)methyl)amino)-4,7,8-trimethyl-7,8-dihydropteridin-6(5H)-one], for which the IC50 in assay [1] lay in the range of 60 to 600 nM; in the assay on HepG2 XBP1(u)-Luc cells it was 600 to 2000 nM. In addition, the EC50 in the assay with Colo-205 cells lay in the range of 600 to 2000 nM.

With `COc1cc(F)ccc1Cn1cc(CNc2nc(C)c3c(n2)N(C)[C@@H](C)C(=O)N3)cn1` [Compound 83, (7S)-2-(((1-(4-fluoro-2-methoxybenzyl)-1H-pyrazol-4-yl)methyl)amino)-4,7,8-trimethyl-7,8-dihydropteridin-6(5H)-one], the values for the IC50 (in assay [1]; with HepG2 XBP1(u)-Luc cells) were less than 60 nM and 600 to 2000 nM, respectively. In addition, the EC50 with Colo-205 cells was less than 600 nM.

Take `Cc1nc(NCc2cnn(Cc3ccnc(C(F)(F)F)c3)c2)nc2c1NC(=O)[C@H](C)N2C` [Compound 207, (7S)-4,7,8-trimethyl-2-(((1-((2-(trifluoromethyl)pyridin-4-yl)methyl)-1H-pyrazol-4-yl)methyl)amino)-7,8-dihydropteridin-6(5H)-one]: the results for the IC50 (in assay [1]; in the assay on HepG2 XBP1(u)-Luc cells) were less than 60 nM and less than 600 nM, respectively. The EC50 with Colo-205 cells is 600 to 2000 nM.

For the compound `Cc1nc(NCc2cnn(Cc3cc(C(F)(F)F)nn3C)c2)nc2c1NC(=O)[C@H](C1CC1)N2C` [Compound 396, (7S)-7-Cyclopropyl-4,8-dimethyl-2-(((1-((1-methyl-3-(trifluoromethyl)-1H-pyrazol-5-yl)methyl)-1H-pyrazol-4-yl)methyl)amino)-7,8-dihydropteridin-6(5H)-one], the IC50 in assay [1] is less than 60 nM; in the assay on HepG2 XBP1(u)-Luc cells, less than 600 nM. Moreover, in the assay on Colo-205 cells, the EC50 is 600 to 2000 nM.

Turning to `Cc1nc(C(F)(F)F)ccc1Cn1cc(CNc2nc(C)c3c(n2)N(C)[C@@H](C)C(=O)N3)cn1` [Compound 188, (S)-4,7,8-trimethyl-2-(((1-((2-methyl-6-(trifluoromethyl)pyridin-3-yl)methyl)-1H-pyrazol-4-yl)methyl)amino)-7,8-dihydropteridin-6(5H)-one], the results for the IC50 (in assay [1]; in the assay on HepG2 XBP1(u)-Luc cells) were less than 60 nM and less than 600 nM, respectively. Also, in the assay on Colo-205 cells, the EC50 fell in the range of 600 to 2000 nM.

With `Cc1nc(N[C@H]2C[C@H](Sc3cc(F)c(F)c(F)c3)C2)nc2c1NC(=O)[C@H](C)N2C` [Compound 329, (7S)-4,7,8-trimethyl-2-((trans-3-((3,4,5-trifluorophenyl)thio)-cyclobutyl)amino)-7,8-dihydropteridin-6(5H)-one], the IC50 is less than 60 nM in assay [1] and less than 600 nM with HepG2 XBP1(u)-Luc cells. Moreover, the EC50 in the assay with Colo-205 cells lay in the range of 600 to 2000 nM.

Take `Cc1nc(N[C@H]2CC[C@H](Oc3ccc(C(F)(F)F)nc3)C2)nc2c1NC(=O)[C@H](C)N2C` (single isomer, unassigned) [Compound 376]: the IC50 in assay [1] was 60 to 600 nM; in the assay on HepG2 XBP1(u)-Luc cells, 600 to 2000 nM. In the assay with Colo-205 cells, the EC50 is 600 to 2000 nM.

Take `Cc1nc(N[C@H]2C[C@@H](Sc3cc(F)c(F)c(F)c3)C2)nc2c1NC(=O)[C@H](C)N2C` [Compound 332, (7S)-4,7,8-trimethyl-2-((cis-3-((3,4,5-trifluorophenyl)thio)cyclobutyl)amino)-7,8-dihydropteridin-6(5H)-one]: the values for the IC50 (in assay [1]; with HepG2 XBP1(u)-Luc cells) were less than 60 nM and less than 600 nM, respectively. Also, in the assay on Colo-205 cells, the EC50 lay within 600 to 2000 nM.

Turning to `Cc1nc(NCc2cnn(Cc3cc(C(F)(F)F)nn3C)c2)nc2c1NC(=O)[C@H](C)N2C` [Compound 160, (7S)-4,7,8-trimethyl-2-(((1-((1-methyl-3-(trifluoromethyl)-1H-pyrazol-5-yl)methyl)-1H-pyrazol-4-yl)methyl)amino)-7,8-dihydropteridin-6(5H)-one], the IC50 in assay [1] was less than 60 nM; in the assay on HepG2 XBP1(u)-Luc cells it was less than 600 nM. Further, the EC50 in the assay with Colo-205 cells was in the range of 600 to 2000 nM.

Turning to `Cc1nc(NCc2cnn(Cc3cccc(C(C)C)c3)c2)nc2c1NC(=O)[C@H](C)N2C` [Compound 80, (7S)-2-(((1-(3-isopropylbenzyl)-1H-pyrazol-4-yl)methyl)amino)-4,7,8-trimethyl-7,8-dihydropteridin-6(5H)-one], the values for the IC50 (in assay [1]; with HepG2 XBP1(u)-Luc cells) were less than 60 nM and less than 600 nM, respectively. The EC50 in the assay on Colo-205 cells was 600 to 2000 nM.

On to `Cc1nc(NCc2cnn(Cc3ccc(F)nc3)c2)nc2c1NC(=O)[C@H](C)N2C` [Compound 77], for which the IC50 in assay [1] was in the range of 60 to 600 nM. Further, the EC50 with Colo-205 cells lay in the range of 600 to 2000 nM.

`COc1c(F)cc(Cn2cc(CNc3nc(C)c4c(n3)N(C)[C@@H](C)C(=O)N4)cn2)cc1F` [Compound 46, (7S)-2-(((1-(3,5-difluoro-4-methoxybenzyl)-1H-pyrazol-4-yl)methyl)amino)-4,7,8-trimethyl-7,8-dihydropteridin-6(5H)-one]: the IC50 in assay [1] is less than 60 nM. Besides, the EC50 with Colo-205 cells is less than 600 nM.

In the case of `Cc1nc(N[C@H]2C[C@H](Oc3cc(F)c(F)c(F)c3)C2)nc2c1NC(=O)[C@H](C)N2C` [Compound 246, (7S)-4,7,8-trimethyl-2-((trans-3-(3,4,5-trifluorophenoxy)cyclobutyl)amino)-7,8-dihydropteridin-6(5H)-one], the IC50 in assay [1] is less than 60 nM. In the assay with Colo-205 cells, the EC50 was no less than 10000 nM.
